According to patent US7226944B2, “Taxanes having a C7 carbonate substituent” (FSU Research Foundation, Inc., priority 2000, dated 2007):

Tested on: HCT116
Experiment: In vitro cytotoxicity measured by the cell colony formation assay
Type: cell-based
Conditions: HCT116 cells; drug concentration producing 50% inhibition of colony formation; 72 h with drug at 37° C., colonies counted after 7 days; read-out: IN VITRO ID 50 (nm) HCT116
Procedure: Four hundred cells (HCT116) were plated in 60 mm Petri dishes containing 2.7 mL of medium (modified McCoy's 5a medium containing 10% fetal bovine serum and 100 units/mL penicillin and 100 µg/mL streptomycin). The cells were incubated in a CO2 incubator at 37° C. for 5 h for attachment to the bottom of Petri dishes. The compounds identified in Example 2 were made up fresh in medium at ten times the final concentration, and then 0.3 mL of this stock solution was added to the 2.7 mL of medium in the dish. The cells were then incubated with drugs for 72 h at 37° C. At the end of incubation the drug-containing media were decanted, the dishes were rinsed with 4 mL of Hank's Balance Salt Solution (HBSS), 5 mL of fresh medium was added, and the dishes were returned to the incubator for colony formation. The cell colonies were counted using a colony counter after incubation for 7 days.

| SMILES | IC50 |
| --- | --- |
| CCOC(=O)O[C@H]1C[C@H]2OC[C@@]2(OC(C)=O)C2[C@H](OC(=O)c3ccccc3)[C@]3(O)C[C@H](OC(=O)[C@H](O)[C@@H](NC(=O)OCC(C)C)c4cccs4)C(C)=C([C@@H](O)C(=O)[C@@]21C)C3(C)C (some centres unmarked) [Compound 4363] | < 10 nM |
| COC(=O)O[C@H]1C[C@H]2OC[C@@]2(OC(C)=O)C2[C@H](OC(=O)c3ccccc3)[C@]3(O)C[C@H](OC(=O)[C@H](O)[C@@H](NC(=O)OCC(C)C)c4cccs4)C(C)=C([C@@H](O)C(=O)[C@@]21C)C3(C)C (some centres unmarked) [Compound 4355] | < 1 nM |
| COC(=O)O[C@H]1C[C@H]2OC[C@@]2(OC(C)=O)C2[C@H](OC(=O)c3ccccc3)[C@]3(O)C[C@H](OC(=O)[C@H](O)[C@@H](NC(=O)OC(C)(C)C)c4ccoc4)C(C)=C([C@@H](O)C(=O)[C@@]21C)C3(C)C (some centres unmarked) [Compound 4434] | < 1 nM |
| COC(=O)O[C@H]1C[C@H]2OC[C@@]2(OC(C)=O)C2[C@H](OC(=O)c3ccccc3)[C@]3(O)C[C@H](OC(=O)[C@H](O)[C@H](C=C(C)C)NC(=O)OCC(C)C)C(C)=C([C@@H](O)C(=O)[C@@]21C)C3(C)C (some centres unmarked) [Compound 4644] | < 10 nM |
| CC(=O)O[C@@]12CO[C@@H]1C[C@H](OC(=O)OCc1ccccc1)[C@@]1(C)C(=O)[C@H](O)C3=C(C)[C@@H](OC(=O)[C@H](O)[C@@H](NC(=O)OC(C)(C)C)c4ccco4)C[C@@](O)([C@@H](OC(=O)c4ccccc4)C12)C3(C)C (some centres unmarked) [Compound 5433] | < 1 nM |
| COC(=O)O[C@H]1C[C@H]2OC[C@@]2(OC(C)=O)C2[C@H](OC(=O)c3ccccc3)[C@]3(O)C[C@H](OC(=O)[C@H](O)[C@@H](NC(=O)OCC(C)C)c4ccco4)C(C)=C([C@@H](O)C(=O)[C@@]21C)C3(C)C (some centres unmarked) [Compound 4656] | < 1 nM |
| CCOC(=O)O[C@H]1C[C@H]2OC[C@@]2(OC(C)=O)C2[C@H](OC(=O)c3ccccc3)[C@]3(O)C[C@H](OC(=O)[C@H](O)[C@@H](NC(=O)OCC(C)C)c4ccsc4)C(C)=C([C@@H](O)C(=O)[C@@]21C)C3(C)C (some centres unmarked) [Compound 4979] | < 10 nM |
| COC(=O)O[C@H]1C[C@H]2OC[C@@]2(OC(C)=O)C2[C@H](OC(=O)c3ccccc3)[C@]3(O)C[C@H](OC(=O)[C@H](O)[C@@H](NC(=O)OC(C)C)c4cccs4)C(C)=C([C@@H](O)C(=O)[C@@]21C)C3(C)C (some centres unmarked) [Compound 4144] | < 1 nM |
| COC(=O)O[C@H]1C[C@H]2OC[C@@]2(OC(C)=O)C2[C@H](OC(=O)c3ccccc3)[C@]3(O)C[C@H](OC(=O)[C@H](O)[C@@H](NC(=O)OC(C)(C)C)c4ccsc4)C(C)=C([C@@H](O)C(=O)[C@@]21C)C3(C)C (some centres unmarked) [Compound 4474] | < 1 nM |
| CCOC(=O)O[C@H]1C[C@H]2OC[C@@]2(OC(C)=O)C2[C@H](OC(=O)c3ccccc3)[C@]3(O)C[C@H](OC(=O)[C@H](O)[C@H](C=C(C)C)NC(=O)OC(C)(C)C)C(C)=C([C@@H](O)C(=O)[C@@]21C)C3(C)C (some centres unmarked) [Compound 4524] | < 1 nM |
| C/C=C/C(=O)N[C@@H](c1ccoc1)[C@@H](O)C(=O)O[C@H]1C[C@@]2(O)[C@@H](OC(=O)c3ccccc3)C3[C@](C)(C(=O)[C@H](O)C(=C1C)C2(C)C)[C@@H](OC(=O)OCC)C[C@H]1OC[C@@]31OC(C)=O (some centres unmarked) [Compound 4904] | < 10 nM |
| COC(=O)O[C@H]1C[C@H]2OC[C@@]2(OC(C)=O)C2[C@H](OC(=O)c3ccccc3)[C@]3(O)C[C@H](OC(=O)[C@H](O)[C@@H](NC(=O)c4ccccc4)c4cccs4)C(C)=C([C@@H](O)C(=O)[C@@]21C)C3(C)C (some centres unmarked) [Compound 4411] | < 1 nM |
| COC(=O)O[C@H]1C[C@H]2OC[C@@]2(OC(C)=O)C2[C@H](OC(=O)c3ccccc3)[C@]3(O)C[C@H](OC(=O)[C@H](O)[C@@H](NC(=O)OC(C)(C)C)C4CC4)C(C)=C([C@@H](O)C(=O)[C@@]21C)C3(C)C (some centres unmarked) [Compound 4566] | < 1 nM |
| CCOC(=O)O[C@H]1C[C@H]2OC[C@@]2(OC(C)=O)C2[C@H](OC(=O)c3ccccc3)[C@]3(O)C[C@H](OC(=O)[C@H](O)[C@@H](NC(=O)OC(C)(C)C)c4ccsc4)C(C)=C([C@@H](O)C(=O)[C@@]21C)C3(C)C (some centres unmarked) [Compound 4500] | < 1 nM |
| C/C=C/C(=O)N[C@@H](c1ccsc1)[C@@H](O)C(=O)O[C@H]1C[C@@]2(O)[C@@H](OC(=O)c3ccccc3)C3[C@](C)(C(=O)[C@H](O)C(=C1C)C2(C)C)[C@@H](OC(=O)OC)C[C@H]1OC[C@@]31OC(C)=O (some centres unmarked) [Compound 4969] | < 1 nM |
| COC(=O)O[C@H]1C[C@H]2OC[C@@]2(OC(C)=O)C2[C@H](OC(=O)c3ccccc3)[C@]3(O)C[C@H](OC(=O)[C@H](O)[C@@H](NC(=O)C=C(C)C)c4cccs4)C(C)=C([C@@H](O)C(=O)[C@@]21C)C3(C)C (some centres unmarked) [Compound 4244] | < 1 nM |
| CCOC(=O)O[C@H]1C[C@H]2OC[C@@]2(OC(C)=O)C2[C@H](OC(=O)c3ccccc3)[C@]3(O)C[C@H](OC(=O)[C@H](O)[C@@H](NC(=O)OCC(C)C)c4ccoc4)C(C)=C([C@@H](O)C(=O)[C@@]21C)C3(C)C (some centres unmarked) [Compound 4624] | < 10 nM |
| CC(=O)O[C@H]1C[C@H]2OC[C@@]2(OC(C)=O)C2[C@H](OC(=O)c3ccccc3)[C@]3(O)C[C@H](OC(=O)[C@H](O)[C@@H](NC(=O)OC(C)(C)C)C4CC4)C(C)=C([C@@H](O)C(=O)[C@@]21C)C3(C)C (some centres unmarked) [Compound 4555] | < 1 nM |
| COC(=O)O[C@H]1C[C@H]2OC[C@@]2(OC(C)=O)C2[C@H](OC(=O)c3ccccc3)[C@]3(O)C[C@H](OC(=O)[C@H](O)[C@@H](NC(=O)c4cccs4)c4cccs4)C(C)=C([C@@H](O)C(=O)[C@@]21C)C3(C)C (some centres unmarked) [Compound 4424] | < 1 nM |
| COC(=O)O[C@H]1C[C@H]2OC[C@@]2(OC(C)=O)C2[C@H](OC(=O)c3ccccc3)[C@]3(O)C[C@H](OC(=O)[C@H](O)[C@@H](NC(=O)OCC(C)C)c4ccsc4)C(C)=C([C@@H](O)C(=O)[C@@]21C)C3(C)C (some centres unmarked) [Compound 4674] | < 1 nM |
| CC(=O)O[C@@]12CO[C@@H]1C[C@H](OC(=O)OCc1ccccc1)[C@@]1(C)C(=O)[C@H](O)C3=C(C)[C@@H](OC(=O)[C@H](O)[C@@H](NC(=O)C=C(C)C)c4ccco4)C[C@@](O)([C@@H](OC(=O)c4ccccc4)C12)C3(C)C (some centres unmarked) [Compound 5466] | < 1 nM |
| CCOC(=O)O[C@H]1C[C@H]2OC[C@@]2(OC(C)=O)C2[C@H](OC(=O)c3ccccc3)[C@]3(O)C[C@H](OC(=O)[C@H](O)[C@H](C=C(C)C)NC(=O)OCC(C)C)C(C)=C([C@@H](O)C(=O)[C@@]21C)C3(C)C (some centres unmarked) [Compound 4688] | < 10 nM |
| COC(=O)O[C@H]1C[C@H]2OC[C@@]2(OC(C)=O)C2[C@H](OC(=O)c3ccccc3)[C@]3(O)C[C@H](OC(=O)[C@H](O)[C@@H](NC(=O)OCC(C)C)c4ccoc4)C(C)=C([C@@H](O)C(=O)[C@@]21C)C3(C)C (some centres unmarked) [Compound 4584] | < 10 nM |
| COC(=O)O[C@H]1C[C@H]2OC[C@@]2(OC(C)=O)C2[C@H](OC(=O)c3ccccc3)[C@]3(O)C[C@H](OC(=O)[C@H](O)[C@@H](NC(=O)c4ccco4)c4cccs4)C(C)=C([C@@H](O)C(=O)[C@@]21C)C3(C)C (some centres unmarked) [Compound 4222] | < 1 nM |
| COC(=O)O[C@H]1C[C@H]2OC[C@@]2(OC(C)=O)C2[C@H](OC(=O)c3ccccc3)[C@]3(O)C[C@H](OC(=O)[C@H](O)[C@@H](NC(=O)OC(C)(C)C)c4ccco4)C(C)=C([C@@H](O)C(=O)[C@@]21C)C3(C)C (some centres unmarked) [Compound 4533] | < 1 nM |
| C/C=C/C(=O)N[C@@H](c1cccs1)[C@@H](O)C(=O)O[C@H]1C[C@@]2(O)[C@@H](OC(=O)c3ccccc3)C3[C@](C)(C(=O)[C@H](O)C(=C1C)C2(C)C)[C@@H](OC(=O)OCc1ccccc1)C[C@H]1OC[C@@]31OC(C)=O (some centres unmarked) [Compound 6566] | < 10 nM |
